# Columns and labels:
# [1] = target: Dual specificity tyrosine-phosphorylation-regulated kinase 1A (Rattus norvegicus) (UniProt Q63470); experiment: Inhibition of GST-fused rat recombinant DYRK1A expressed in Escherichia coli using myelin basic protein as substrate at 10 uM after 30 mins in presence of [gamma33P] ATP by scintillation counting
# [2] = target: Dual specificity protein kinase CLK1 (Homo sapiens) (UniProt P49759); experiment: Inhibition of GST-fused human recombinant CLK1 expressed in Escherichia coli using GRSRSRSRSRSR peptide as substrate at 10 uM
# Sus scrofa = organism: Sus scrofa; experiment: Inhibition of porcine brain CK1delta/epsilon using RRKHAAIGpSAYSITA as substrate at 10 uM after 30 mins in presence of [gamma33P] ATP by scintillation counting
# [3] = target: Glycogen synthase kinase-3 (Sus scrofa) (UniProt B2LUN4+I6LNT8); experiment: Inhibition of porcine brain GSKalpha/beta using GS-1 as substrate at 10 uM after 30 mins in presence of [gamma33P] ATP by scintillation counting
# [4] = target: Cyclin-dependent kinase 5/CDK5 activator 1 (Homo sapiens) (UniProt Q00535+Q15078); experiment: Inhibition of human recombinant CDK5/p25 using histone1 as substrate at 10 uM after 30 mins in presence of [gamma33P] ATP by scintillation counting; type: protein-complex assay
# Sequence of Cyclin-dependent kinase 5/CDK5 activator 1 (Homo sapiens) (Q00535 whole entry): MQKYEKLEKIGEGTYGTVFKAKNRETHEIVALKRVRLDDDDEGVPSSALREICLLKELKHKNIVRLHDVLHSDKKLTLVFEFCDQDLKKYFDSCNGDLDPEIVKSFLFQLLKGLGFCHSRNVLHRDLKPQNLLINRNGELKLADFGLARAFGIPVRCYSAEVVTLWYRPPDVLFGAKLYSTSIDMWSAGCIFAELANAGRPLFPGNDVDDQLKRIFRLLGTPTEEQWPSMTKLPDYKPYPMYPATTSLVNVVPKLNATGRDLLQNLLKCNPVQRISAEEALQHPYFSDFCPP
# Sequence of Cyclin-dependent kinase 5/CDK5 activator 1 (Homo sapiens) (Q15078 99-307 partner limits assumed): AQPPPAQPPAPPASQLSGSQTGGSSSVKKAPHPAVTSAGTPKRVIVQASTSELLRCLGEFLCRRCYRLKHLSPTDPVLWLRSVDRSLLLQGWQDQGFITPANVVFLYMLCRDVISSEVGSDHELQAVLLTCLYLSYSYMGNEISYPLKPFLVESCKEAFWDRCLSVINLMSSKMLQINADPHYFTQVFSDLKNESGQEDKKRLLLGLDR
# Sequence of Dual specificity protein kinase CLK1 (Homo sapiens) (P49759 whole entry, looked up, the tested form may be a part): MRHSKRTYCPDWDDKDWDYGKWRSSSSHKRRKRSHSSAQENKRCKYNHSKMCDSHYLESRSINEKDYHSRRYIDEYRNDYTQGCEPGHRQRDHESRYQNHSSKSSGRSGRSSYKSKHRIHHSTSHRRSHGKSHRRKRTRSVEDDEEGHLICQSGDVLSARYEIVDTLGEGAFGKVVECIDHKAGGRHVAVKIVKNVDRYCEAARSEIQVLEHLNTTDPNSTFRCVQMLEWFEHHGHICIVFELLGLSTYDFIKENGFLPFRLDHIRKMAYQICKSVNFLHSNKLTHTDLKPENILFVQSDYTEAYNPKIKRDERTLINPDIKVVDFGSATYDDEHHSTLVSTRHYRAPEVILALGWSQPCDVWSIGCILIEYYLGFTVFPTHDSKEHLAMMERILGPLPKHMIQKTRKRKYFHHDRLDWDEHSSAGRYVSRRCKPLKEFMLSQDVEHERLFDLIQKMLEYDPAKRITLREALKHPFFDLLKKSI
inhibition [1] [%],inhibition [2] [%],inhibition (Sus scrofa) [%],inhibition [3] [%],inhibition [4] [%],SMILES
40,37,64,14,2,Nc1ncc2c(Cc3ccccc3)c3cnccc3c([N+](=O)[O-])c2n1
99,100,76,54,70,Nc1ncc2cc3cnccc3c(N)c2n1
52,31,42,34,0,CCCCc1c2cnccc2c(N)c2nc(N)ncc12
90,30,70,43,54,Cc1c2cnccc2c(N)c2nc(N)ncc12
76,28,34,41,0,Nc1ncc2c(Br)c3cnccc3c([N+](=O)[O-])c2n1
95,98,91,75,44,Nc1ncc2cc3cnccc3c([N+](=O)[O-])c2n1
82,30,83,78,88,Cc1c2cnccc2c([N+](=O)[O-])c2nc(N)ncc12
49,32,55,25,33,Nc1ncc2c(-c3ccccc3)c3cnccc3c(N)c2n1
65,31,84,79,61,CCc1c2cnccc2c(N)c2nc(N)ncc12
53,30,49,74,25,Nc1ncc2c(-c3ccccc3)c3cnccc3c([N+](=O)[O-])c2n1
86,31,57,100,91,CCCCc1c2cnccc2c([N+](=O)[O-])c2nc(N)ncc12
49,29,76,12,4,Nc1ncc2c(Cc3ccccc3)c3cnccc3c(N)c2n1
80,31,87,98,96,CCc1c2cnccc2c([N+](=O)[O-])c2nc(N)ncc12

# From ChEMBL document CHEMBL4425175, “Synthesis and preliminary in vitro kinase inhibition evaluation of new diversely substituted pyrido[3,4-g]quinazoline derivatives” (Bioorg Med Chem Lett, 2016)
